SMILES strings stand for the structures. Residues, ends and D or L forms follow the SMILES beside them.

Assay [1] concerns lysozyme. Briefly: VP-DSC thermal unfolding of lysozyme in formulated solutions. The class given is physicochemical. As to conditions: for increase in the melting temperature of lysozyme: in both VP-DSC and CD; for reversibility of thermal denaturation / refolding of lysozyme, VP-DSC: second scan. As to the method:
(§1) To evaluate the effect of diglycine on the conformational stability of lysozyme, Formulations 1 and 2 as well as a formulation without diglycine were analyzed by differential scanning calorimetry (DSC) and circular dichroism (CD). Before DSC and CD analysis, a lysozyme solution was prepared in borate buffer, pH 7.3 (sodium borate, 0.09%; boric acid, 0.85%; sodium chloride, 0.22%) at a concentration of 5 mg/mL, and was dialyzed against the formulated solutions containing 0, 1 (Formulation 1), and 3% (Formulation 2) diglycine, at 2-8° C. for 16 hours. Thermal scans were preformed twice to investigate the reversibility of thermal unfolding for both DSC and CD. This study examines the values of melting temperature (Tm), unfolding enthalpies (ΔH), and the ability of the lysozyme to refold upon unfolding for each of the three formulations because these parameters, in general, predict the thermostability of a protein and approximates the susceptibility of a protein to aggegrate and other irreversible changes at lower temperatures.
For the DSC analysis, thermograms were obtained on a VP-DSC (Microcal, USA) at a scan rate of 90° C. per hour from 10° C. to 95° C. All samples were diluted with the formulated solutions to a concentration of 0.5 mg/mL, and degassed for 4 minutes using a vacuum. The thermograms were corrected for the baseline signal and normalized for protein concentration. Using a non-2-state unfolding model, the Tm and the ΔH were determined by Origin software. […]
Background: Differential scanning calorimetry records heat flow against a reference as temperature is scanned.

For assay [2], the system named is lysozyme. As to the kind of experiment: Far-UV circular dichroism (CD) thermal melting of lysozyme in formulated solutions. It counts as physicochemical. Conditions: for reversibility of thermal denaturation / refolding of lysozyme, CD: second scan; for change of lysozyme Tm, CD: glycerin 1%, trehalose 1% and 5%, alone. As to the method:
as §1
CD spectra were conducted on a Jasco-810 Spectropolarimeter. The far-UV CD studies were preformed in a 1-mm pathlength cell at a protein concentration of 0.2 mg/mL, using a scan rate of 50 nm/min from 190 nm to 260 nm and a scan rate of 1° C./min from 20° C. to 95° C. The melting temperatures and the unfolding enthalpies were determined from the denaturation curved obtained from the dependency of the mean residue ellipticity at 230 nm on temperature.
A second experiment screened the additives glycerin, trehalose, and hyaluronic acid (HA) in combination with 1% diglycine, for their ability to stabilize the conformation of lysozyme. VP-DSC and CD were again used to measure the melting temperatures (Tm), unfolding enthalpies (ΔH), and the ability to refold the lysozyme upon unfolding.
Before DSC and CD analysis, the lysozyme solution was prepared in a borate buffer, pH 7.3 (sodium borate, 0.09%; boric acid, 0.85%; sodium chloride, 0.22%) at a concentration of 5 mg/mL. It was then dialyzed against the formulated solutions containing either 1% glycerin, 1% trehalose, 5% trehalose, 1% diglycine and 3% glycerin, or 1% diglycine and 3% trehalose, at 2-8° C. for 16 hours. For the hyaluronic acid formulation, the lysozyme solution was dialyzed against the borate buffer, and subsequently diluted to the desired concentrations with 0.2% of hyaluronic acid for analyses. Thermal scans were performed twice to investigate the reversibility of thermal unfolding for both methods.
The VP-DSC results are supported by the circular dichroism (CD) spectral measurements which were conducted as a function of temperature on a Jasco-810 Spectropolarimeter. The far-UV CD studies were performed in a 1-mm pathlength cell at a protein concentration of 0.2 mg/mL, and a scan rate of 1° C./min form 20° C. to 95° C. The melting temperatures and the Van't Hoff enthalpies were determined from denaturation curves obtained from the mean residue ellipticity at 230 nm as a function of temperature. Tables 2 and 3 summarize the results of the CD measurements and FIGS. 13-18 show the CD-thermal scans.
For orientation: Circular dichroism is the unequal absorption of left and right circularly polarised light.

On to `NCC(=O)NCC(=O)O` [diglycine] (H-Gly-Gly-OH), for which the “increase in the melting temperature of lysozyme” value in the assay with lysozyme [1] (1% w/w diglycine vs borate buffer) is “approximately 2 °C”; with lysozyme [1] (3% w/w diglycine vs borate buffer) it was roughly 4 °C. The “reversibility of thermal denaturation / refolding of lysozyme, VP-DSC” value in the assay on lysozyme [1] is “at least partially reversible”. For the same compound, the “reversibility of thermal denaturation / refolding of lysozyme, CD” value in the assay with lysozyme [2] is reported as “at least partially reversible”.

As for `OCC(O)CO` [glycerin], in the assay on lysozyme [1], the “change of lysozyme Tm, VP-DSC” value is “did not increase” and the “reversibility of thermal denaturation / refolding of lysozyme, VP-DSC” value is listed as “not able to refold”. For the same compound, in the assay with lysozyme [2], the “change of lysozyme Tm, CD” value was “did not increase” and the “reversibility of thermal denaturation / refolding of lysozyme, CD” value was “partial refolding phenomenon”.

In the case of `OC[C@H]1O[C@H](O[C@H]2O[C@H](CO)[C@@H](O)[C@H](O)[C@H]2O)[C@H](O)[C@@H](O)[C@@H]1O` [trehalose], in the assay with lysozyme [1], the “change of lysozyme Tm, VP-DSC” value is listed as “did not increase” and the “reversibility of thermal denaturation / refolding of lysozyme, VP-DSC” value is “not able to refold”. Besides, in the assay on lysozyme [2], the “change of lysozyme Tm, CD” value is reported as “did not increase” and the “reversibility of thermal denaturation / refolding of lysozyme, CD” value was “not able to refold”.

The values are drawn from patent US20080095754A1, “OPHTHALMIC COMPOSITIONS COMPRISING DIGLYCINE” (priority 2006, published 2008).
